The source of these data is patent US20140120083A1, “TREATMENT OF CANCERS USING PI3 KINASE ISOFORM MODULATORS” (INFINITY PHARMACEUTICALS, INC., priority 2012, published 2014).

As usually defined, the IC50 is the concentration that gives 50% inhibition. Low values mean greater potency in that assay, high ones weaker potency in that assay.

Each structure is given as a SMILES string. Where “and” joins values, the source holds several entries; their conditions need not be identical. Identical values can stand only once.

Common to all, as to assay type: biochemical
The target of assay [1] is PI3K δ (Homo sapiens, UniProt O00329). The experiment in a line: In vitro IC50, PI3K δ. Set-up: purchased Upstate. An excerpt:
(§1) An exemplary system is PI 3-Kinase (human) HTRF™ Assay from Upstate.

Assay [2] addresses T1, PI3K α (Homo sapiens, UniProt P42336).
T1 construct: purchased Upstate
The experiment in a line: In vitro IC50, PI3K α.
Description: as §1

The target in assay [3] is PI3K β (Homo sapiens, UniProt P42338). The experiment in a line: In vitro IC50, PI3K β.
Description: as §1

In assay [4] the target is T2, PI3K γ (Homo sapiens, UniProt P48736).
T2 construct: purchased Sigma
The experiment in a line: In vitro IC50, PI3K γ.
Description: as §1

Sequence of PI3K β (P42338 whole entry): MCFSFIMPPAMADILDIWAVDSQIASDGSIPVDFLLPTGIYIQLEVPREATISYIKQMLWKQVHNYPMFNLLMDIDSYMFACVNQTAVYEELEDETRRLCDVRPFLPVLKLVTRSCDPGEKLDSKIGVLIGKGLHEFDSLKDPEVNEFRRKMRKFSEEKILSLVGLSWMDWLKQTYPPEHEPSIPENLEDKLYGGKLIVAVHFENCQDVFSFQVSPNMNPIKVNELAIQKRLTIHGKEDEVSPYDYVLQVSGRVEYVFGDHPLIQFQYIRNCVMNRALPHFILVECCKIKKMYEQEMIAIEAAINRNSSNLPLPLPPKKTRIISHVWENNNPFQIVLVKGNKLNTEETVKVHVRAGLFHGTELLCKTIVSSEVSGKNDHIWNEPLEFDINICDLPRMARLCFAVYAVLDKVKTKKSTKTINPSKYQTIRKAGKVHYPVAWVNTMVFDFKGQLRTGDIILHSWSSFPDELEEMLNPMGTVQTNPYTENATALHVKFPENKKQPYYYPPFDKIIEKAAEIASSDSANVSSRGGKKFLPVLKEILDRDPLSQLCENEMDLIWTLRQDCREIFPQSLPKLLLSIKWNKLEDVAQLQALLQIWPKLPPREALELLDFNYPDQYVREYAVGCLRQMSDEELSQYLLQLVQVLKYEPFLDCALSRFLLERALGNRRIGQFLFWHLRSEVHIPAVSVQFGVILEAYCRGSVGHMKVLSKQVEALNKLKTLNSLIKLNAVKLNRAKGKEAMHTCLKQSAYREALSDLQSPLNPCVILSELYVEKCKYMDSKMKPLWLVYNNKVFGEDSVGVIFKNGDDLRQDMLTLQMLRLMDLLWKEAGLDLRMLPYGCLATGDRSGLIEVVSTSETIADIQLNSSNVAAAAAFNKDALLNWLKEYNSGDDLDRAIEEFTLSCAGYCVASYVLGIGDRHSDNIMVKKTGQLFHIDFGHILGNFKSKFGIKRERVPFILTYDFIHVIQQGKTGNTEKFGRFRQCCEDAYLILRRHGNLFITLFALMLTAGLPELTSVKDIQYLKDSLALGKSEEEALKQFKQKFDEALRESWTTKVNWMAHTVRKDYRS
Sequence of PI3K δ (O00329 whole entry): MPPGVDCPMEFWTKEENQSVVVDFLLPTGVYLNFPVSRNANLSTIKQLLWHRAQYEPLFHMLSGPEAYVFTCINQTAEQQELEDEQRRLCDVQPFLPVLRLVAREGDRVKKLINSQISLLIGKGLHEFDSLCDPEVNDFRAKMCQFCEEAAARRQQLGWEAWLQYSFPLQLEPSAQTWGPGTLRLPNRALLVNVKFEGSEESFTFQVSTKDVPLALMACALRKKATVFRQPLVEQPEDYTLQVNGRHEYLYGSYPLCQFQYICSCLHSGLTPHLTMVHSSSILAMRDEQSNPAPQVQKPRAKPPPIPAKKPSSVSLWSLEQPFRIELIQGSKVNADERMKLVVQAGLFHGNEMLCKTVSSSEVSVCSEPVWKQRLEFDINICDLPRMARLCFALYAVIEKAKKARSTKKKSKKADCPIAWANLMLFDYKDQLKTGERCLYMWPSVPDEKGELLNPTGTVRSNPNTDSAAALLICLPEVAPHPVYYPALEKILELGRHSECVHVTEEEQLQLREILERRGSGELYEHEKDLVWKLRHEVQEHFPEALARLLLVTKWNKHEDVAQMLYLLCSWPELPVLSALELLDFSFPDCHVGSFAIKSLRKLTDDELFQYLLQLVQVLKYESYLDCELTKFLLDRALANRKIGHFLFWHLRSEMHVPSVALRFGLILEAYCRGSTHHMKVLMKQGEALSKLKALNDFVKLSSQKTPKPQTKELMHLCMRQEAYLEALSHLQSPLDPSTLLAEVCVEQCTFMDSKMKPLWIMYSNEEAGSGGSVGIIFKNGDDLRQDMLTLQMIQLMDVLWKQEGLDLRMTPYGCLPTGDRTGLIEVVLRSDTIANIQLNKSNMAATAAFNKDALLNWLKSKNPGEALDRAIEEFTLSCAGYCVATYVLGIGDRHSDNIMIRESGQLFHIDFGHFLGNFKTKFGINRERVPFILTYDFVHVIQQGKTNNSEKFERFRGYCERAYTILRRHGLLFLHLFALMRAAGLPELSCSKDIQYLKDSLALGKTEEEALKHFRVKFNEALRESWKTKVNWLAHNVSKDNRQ
Sequence of PI3K δ (P27986 whole entry partner): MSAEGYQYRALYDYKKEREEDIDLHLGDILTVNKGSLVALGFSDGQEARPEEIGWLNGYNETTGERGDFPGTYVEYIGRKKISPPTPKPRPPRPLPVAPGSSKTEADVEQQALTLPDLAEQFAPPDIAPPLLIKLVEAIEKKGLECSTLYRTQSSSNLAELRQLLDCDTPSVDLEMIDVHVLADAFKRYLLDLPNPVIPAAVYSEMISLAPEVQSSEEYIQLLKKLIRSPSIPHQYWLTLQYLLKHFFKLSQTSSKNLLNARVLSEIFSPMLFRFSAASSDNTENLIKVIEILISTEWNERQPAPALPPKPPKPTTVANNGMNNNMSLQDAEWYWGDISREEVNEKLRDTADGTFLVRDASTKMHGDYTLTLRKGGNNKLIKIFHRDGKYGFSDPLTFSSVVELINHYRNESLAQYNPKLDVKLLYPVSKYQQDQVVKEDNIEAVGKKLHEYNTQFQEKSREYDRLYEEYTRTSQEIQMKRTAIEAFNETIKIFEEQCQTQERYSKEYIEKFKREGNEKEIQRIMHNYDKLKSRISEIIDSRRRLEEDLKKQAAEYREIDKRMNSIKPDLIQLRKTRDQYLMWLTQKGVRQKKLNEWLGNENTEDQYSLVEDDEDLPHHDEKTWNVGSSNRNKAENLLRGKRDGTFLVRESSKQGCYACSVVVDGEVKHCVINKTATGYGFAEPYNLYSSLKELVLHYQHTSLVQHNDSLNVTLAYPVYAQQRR
T1 sequence (P42336 whole entry): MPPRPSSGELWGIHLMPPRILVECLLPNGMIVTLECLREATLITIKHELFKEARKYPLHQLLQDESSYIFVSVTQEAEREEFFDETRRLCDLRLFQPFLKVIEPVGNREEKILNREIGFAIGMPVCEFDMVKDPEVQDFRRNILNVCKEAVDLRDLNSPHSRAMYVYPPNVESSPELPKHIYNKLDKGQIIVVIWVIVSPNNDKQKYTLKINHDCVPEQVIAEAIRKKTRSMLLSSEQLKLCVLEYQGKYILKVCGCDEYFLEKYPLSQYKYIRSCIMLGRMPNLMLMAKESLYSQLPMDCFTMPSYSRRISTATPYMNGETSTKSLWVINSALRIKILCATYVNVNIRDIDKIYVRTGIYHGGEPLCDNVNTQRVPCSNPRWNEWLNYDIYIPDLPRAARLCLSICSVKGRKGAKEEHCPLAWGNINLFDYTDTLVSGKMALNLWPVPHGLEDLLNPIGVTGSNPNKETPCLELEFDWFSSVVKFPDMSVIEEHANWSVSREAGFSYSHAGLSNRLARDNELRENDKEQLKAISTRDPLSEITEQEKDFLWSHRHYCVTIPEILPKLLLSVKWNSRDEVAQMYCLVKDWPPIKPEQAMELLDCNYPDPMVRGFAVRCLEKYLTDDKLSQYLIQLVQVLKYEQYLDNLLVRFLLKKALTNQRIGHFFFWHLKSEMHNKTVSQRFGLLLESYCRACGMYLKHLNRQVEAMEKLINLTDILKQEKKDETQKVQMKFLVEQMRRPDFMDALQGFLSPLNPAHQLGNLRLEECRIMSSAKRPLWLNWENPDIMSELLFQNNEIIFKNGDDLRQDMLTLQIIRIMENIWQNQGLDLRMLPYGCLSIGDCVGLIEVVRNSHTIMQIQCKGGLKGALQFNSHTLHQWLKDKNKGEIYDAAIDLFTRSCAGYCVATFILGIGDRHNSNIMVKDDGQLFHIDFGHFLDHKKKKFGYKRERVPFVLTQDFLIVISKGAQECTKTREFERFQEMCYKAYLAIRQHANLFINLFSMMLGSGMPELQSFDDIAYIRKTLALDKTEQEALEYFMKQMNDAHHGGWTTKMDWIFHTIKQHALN
T1 sequence (P27986 whole entry partner): as the sequence (P27986 whole entry partner) above
T2 sequence (P48736 whole entry): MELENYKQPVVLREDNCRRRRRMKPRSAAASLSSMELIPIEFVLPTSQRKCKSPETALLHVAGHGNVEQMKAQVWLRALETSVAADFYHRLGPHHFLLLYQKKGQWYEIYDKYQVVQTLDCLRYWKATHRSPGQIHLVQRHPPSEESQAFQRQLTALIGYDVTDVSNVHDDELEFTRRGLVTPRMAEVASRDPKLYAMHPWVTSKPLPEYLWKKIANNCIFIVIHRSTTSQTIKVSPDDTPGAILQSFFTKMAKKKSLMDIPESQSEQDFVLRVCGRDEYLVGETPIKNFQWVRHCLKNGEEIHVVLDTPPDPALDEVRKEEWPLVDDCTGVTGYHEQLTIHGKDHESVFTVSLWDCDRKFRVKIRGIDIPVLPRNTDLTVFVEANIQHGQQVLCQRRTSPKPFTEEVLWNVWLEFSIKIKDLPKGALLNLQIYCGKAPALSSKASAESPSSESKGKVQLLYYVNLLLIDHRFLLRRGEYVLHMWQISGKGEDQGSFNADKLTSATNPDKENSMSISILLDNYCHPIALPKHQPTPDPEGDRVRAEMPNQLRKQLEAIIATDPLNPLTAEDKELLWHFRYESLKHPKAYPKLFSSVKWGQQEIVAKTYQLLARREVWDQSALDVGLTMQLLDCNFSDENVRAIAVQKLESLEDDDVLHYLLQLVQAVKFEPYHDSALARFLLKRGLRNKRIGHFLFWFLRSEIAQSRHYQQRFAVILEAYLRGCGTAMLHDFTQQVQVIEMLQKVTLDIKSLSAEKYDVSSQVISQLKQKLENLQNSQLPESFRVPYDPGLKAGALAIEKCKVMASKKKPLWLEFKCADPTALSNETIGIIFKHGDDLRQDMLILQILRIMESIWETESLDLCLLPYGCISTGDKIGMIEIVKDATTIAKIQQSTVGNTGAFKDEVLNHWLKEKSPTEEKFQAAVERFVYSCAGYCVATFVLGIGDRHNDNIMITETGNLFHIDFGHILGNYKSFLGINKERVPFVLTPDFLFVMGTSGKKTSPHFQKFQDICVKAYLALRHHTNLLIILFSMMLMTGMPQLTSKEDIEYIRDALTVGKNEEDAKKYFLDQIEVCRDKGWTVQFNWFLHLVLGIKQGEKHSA

Regarding `CC(=O)Nc1nc2ccc(-c3nn(Cc4cc5cccc(C)c5c(=O)n4C(C)C)c4ncnc(N)c34)cc2s1` [Compound 154], the IC50 was under 100 nM in assay [1], under 100 nM in assay [2] and under 10000 nM in assay [3].

With `Cc1cccc2cc(Cn3nc(-c4cccc(O)c4)c4c(N)ncnc43)n(C3CCCCC3)c(=O)c12` [Compound 111], the IC50 in assay [1] was under 100 nM; in assay [2], over 10000 nM; in assay [3], under 10000 nM.

As to `CC(=O)Nc1nc2ccc(-c3nn(Cc4cc5cccc(F)c5c(=O)n4C(C)C)c4ncnc(N)c34)cc2s1` [Compound 158], the IC50 in assay [1] was under 100 nM; in assay [2], under 100 nM; in assay [3], under 10000 nM.

As for `Cc1ccncc1-n1c(Cn2nc(I)c3c(N)ncnc32)cc2cccc(C)c2c1=O` [Compound 78], the IC50 is under 1000 nM in assay [4], under 100 nM in assay [1] and over 10000 nM in assay [3].

For `Cc1ccccc1-n1c(Cn2nc(-c3cc(O)cc(F)c3)c3c(N)ncnc32)cc2cccc(C)c2c1=O` [Compound 7], the IC50 is under 10000 nM in assay [2] and under 1000 nM in assay [3].

For the compound `Cc1cccc2cc(Cn3nc(I)c4c(N)ncnc43)n(-c3ccccc3Cl)c(=O)c12` [Compound 76], the IC50 in assay [4] is under 1000 nM; in assay [1], under 100 nM; in assay [3] it was over 10000 nM.

For `Cc1cccc2cc(Cn3nc(CF)c4c(N)ncnc43)n(-c3ccccc3)c(=O)c12` [Compound 311], the IC50 is under 100 nM in assay [4], under 100 nM in assay [1] and over 10000 nM in assay [3].

For the compound `Cc1cccc2cc(Cn3nc(C#C[C@@H](C)O)c4c(N)ncnc43)n(C3CCCCC3)c(=O)c12` [Compound 112], the IC50 is under 100 nM in assay [1], over 10000 nM in assay [2] and over 10000 nM in assay [3].

As to `Cc1ccccc1-n1c(Cn2nc(CF)c3c(N)ncnc32)cc2cccc(C)c2c1=O` [Compound 310], the 50% inhibitory concentration (IC50) in assay [4] was under 100 nM; in assay [1], under 100 nM; in assay [3], over 10000 nM.

`Cc1ccccc1-n1c(Cn2nc(-c3cccc(O)c3)c3c(N)ncnc32)cc2cccc(C)c2c1=O` [Compound 13]: the IC50 in assay [4] was under 100 nM; in assay [2], over 10000 nM; in assay [3] it was under 10000 nM.

With `Cc1cccc2cc(Cn3nc(-c4cc(O)cc(F)c4)c4c(N)ncnc43)n(C3CCC3)c(=O)c12` [Compound 115], the IC50 in assay [1] was under 100 nM; in assay [2] it was under 10000 nM; in assay [3], under 10000 nM.

Consider `CC(=O)Nc1nc2ccc(-c3nn(Cc4cc5cccc(Cl)c5c(=O)n4C(C)C)c4ncnc(N)c34)cc2s1` [Compound 157], for which the IC50 in assay [1], in assay [2] and in assay [3] was under 100 nM in each case.

As for `Cc1cccc2cc(Cn3nc(-c4ccc5nc(N)cn5c4)c4c(N)ncnc43)n(-c3ccccc3)c(=O)c12` [Compound 239], the IC50 in assay [4] was under 10000 nM; in assay [1], under 1000 nM; in assay [2], over 10000 nM.

As to `Cc1cccc2cc([C@H](C)Nc3nc(F)nc4[nH]cnc34)n(-c3ccccc3)c(=O)c12` [Compound 245], the IC50 in assay [4] is under 100 nM; in assay [1], under 100 nM; in assay [2], under 10000 nM.

Take `COc1ccc(-c2nn(Cc3cc4cccc(C)c4c(=O)n3-c3ccccc3F)c3ncnc(N)c23)cc1OC` [Compound 47]: the IC50 is under 1000 nM in assay [4], under 1000 nM in assay [1] and over 10000 nM in assay [2].

On to `Cc1ccccc1-n1c(Cn2nc(-c3cccc(O)c3)c3c(N)ncnc32)cc2ccccc2c1=O` [Compound 51], for which the IC50 is under 1000 nM in assay [4], under 100 nM in assay [1] and over 10000 nM in assay [2].

In the case of `Cc1cccc2cc([C@H](C)Nc3ncnc4[nH]cnc34)n(C3CC3)c(=O)c12` [Compound 200], the IC50 in assay [4], in assay [1] and in assay [3] was under 100 nM throughout.

With `Cc1cccnc1-n1c(Cn2nc(I)c3c(N)ncnc32)cc2cccc(C)c2c1=O` [Compound 15], the IC50 was under 1000 nM in assay [4], under 1000 nM in assay [1] and over 10000 nM in assay [2].

Regarding `Cc1cccc2cc(Cn3nc(-c4cccc(Cl)c4)c4c(N)ncnc43)n(-c3ccccc3F)c(=O)c12` [Compound 38], the IC50 in assay [4] is > 10000 nM and < 10000 nM; in assay [1] it was under 10000 nM; in assay [3], over 10000 nM.

Consider `CC(=O)Nc1nc2ccc(-c3nn(Cc4cc5cccc(Cl)c5c(=O)n4C4CC4)c4ncnc(N)c34)cc2s1` [Compound 156], for which the IC50 in assay [1], in assay [2] and in assay [3] was under 100 nM each time.

Turning to `CC(=O)Nc1nc2ccc(-c3nn(Cc4cc5cccc(C)c5c(=O)n4C4CC4)c4ncnc(N)c34)cc2s1` [Compound 155], the 50% inhibitory concentration (IC50) in assay [1], in assay [2] and in assay [3] was under 100 nM each time.

For `Cc1cccnc1-n1c(Cn2nc(-c3cc(O)cc(F)c3)c3c(N)ncnc32)cc2cccc(C)c2c1=O` [Compound 16], the values for the half-inhibitory concentration (IC50) in assay [4], in assay [1] and in assay [2] were under 100 nM, under 100 nM and over 10000 nM, respectively.

For `Cc1ccccc1-n1c(CN(C)c2ncnc3[nH]cnc23)cc2cccc(C)c2c1=O` [Compound 184], the 50% inhibitory concentration (IC50) in assay [4] is under 10000 nM; in assay [2] it was over 10000 nM; in assay [3], over 10000 nM.

With `Cc1ccccc1-n1c(Cn2nc(C#C[C@H](C)O)c3c(N)ncnc32)cc2cccc(C)c2c1=O` [Compound 85], the IC50 is under 1000 nM in assay [1], over 10000 nM in assay [2] and under 10000 nM in assay [3].

For the compound `Cc1ccccc1-n1c(Cn2nc(-c3ccc4cc[nH]c4c3)c3c(N)ncnc32)cc2cccc(C)c2c1=O` [Compound 50], the results for the IC50 in assay [4], in assay [1] and in assay [2] were under 100 nM, under 100 nM and over 10000 nM, respectively.

Turning to `CC(=O)Nc1nc2ccc(-c3nn(Cc4cc5cccc(C)c5c(=O)n4C)c4ncnc(N)c34)cc2s1` [Compound 153], the IC50 in assay [1] was under 100 nM; in assay [2] it was under 100 nM; in assay [3], under 1000 nM.

Turning to `COCc1nn(Cc2cc3cccc(C)c3c(=O)n2-c2ccccc2C)c2ncnc(N)c12` [Compound 314], the IC50 in assay [4], in assay [1] and in assay [2] was over 10000 nM throughout.

`Cc1cccc2cc(Cn3nc(I)c4c(N)ncnc43)n(-c3ccccc3C(C)C)c(=O)c12` [Compound 75]: the IC50 is under 100 nM in assay [4], under 100 nM in assay [1] and under 10000 nM in assay [3].

Regarding `Cc1cccnc1-n1c(Cn2nc(Br)c3c(N)ncnc32)cc2cccc(C)c2c1=O` [Compound 17], the IC50 in assay [4] was under 10000 nM; in assay [1], under 1000 nM; in assay [2] it was over 10000 nM.

On to `Cc1ccccc1-n1c(Cn2nc(-c3cc(O)cc(F)c3)c3c(N)ncnc32)cc2ccccc2c1=O` [Compound 33], for which the half-maximal inhibitory concentration (IC50) is under 100 nM in assay [4], under 100 nM in assay [1] and over 10000 nM in assay [2].

Take `CC(=O)Nc1nc2ccc(-c3nn(Cc4cc5cccc(C)c5c(=O)n4-c4ccccc4)c4ncnc(N)c34)cc2[nH]1` [Compound 304]: the results for the IC50 in assay [4], in assay [2] and in assay [3] were under 100 nM, over 10000 nM and over 10000 nM, respectively.

Regarding `Cc1cccc2cc(Cn3nc(-c4cc(O)cc(F)c4)c4c(N)ncnc43)n(C3CCCCC3)c(=O)c12` [Compound 110], the IC50 in assay [1] was under 100 nM; in assay [2] it was over 10000 nM; in assay [3], under 10000 nM.

Turning to `Cc1ccccc1-n1c(Cn2nc(I)c3c(N)ncnc32)cc2ccccc2c1=O` [Compound 31], the IC50 is under 100 nM in assay [4], under 1000 nM in assay [1] and over 10000 nM in assay [2].

Consider `Cc1nc2c(N[C@@H](C)c3cc4cccc(C)c4c(=O)n3-c3ccccc3)ncnc2[nH]1` [Compound 242], for which the IC50 in assay [4] is under 10000 nM; in assay [1], under 10000 nM; in assay [2], over 10000 nM.

Take `CC(=O)Nc1nc2ccc(-c3nn(Cc4cc5cccc(C)c5c(=O)n4C4CCC4)c4ncnc(N)c34)cc2s1` [Compound 159]: the IC50 in assay [1] was under 100 nM; in assay [2], under 100 nM; in assay [3] it was under 1000 nM.

Consider `CNc1ncc(Cl)c(N[C@@H](C)c2cc3cccc(C)c3c(=O)n2-c2ccccc2)n1` [Compound 250], for which the IC50 was under 1000 nM in assay [4], under 1000 nM in assay [1] and over 10000 nM in assay [2].

Consider `Cc1ccccc1-n1c(Cn2nc(-c3cnc4[nH]ccc4c3)c3c(N)ncnc32)cc2cccc(C)c2c1=O` [Compound 48], for which the IC50 is under 100 nM in assay [4], under 100 nM in assay [1] and over 10000 nM in assay [2].

For `Cc1ccccc1-n1c(Cn2nc(-c3cnn(CCO)c3)c3c(N)ncnc32)cc2cccc(C)c2c1=O` [Compound 163], the IC50 is under 1000 nM in assay [4], over 10000 nM in assay [2] and over 10000 nM in assay [3].

Regarding `CCc1ccccc1-n1c(Cn2nc(I)c3c(N)ncnc32)cc2cccc(C)c2c1=O` [Compound 77], the IC50 in assay [4] is under 100 nM; in assay [1], under 100 nM; in assay [3], under 10000 nM.

For the compound `Cc1ccccc1-n1c(Cn2nc(CC#N)c3c(N)ncnc32)cc2cccc(C)c2c1=O` [Compound 312], the IC50 in assay [4] was under 10000 nM; in assay [1] it was under 100 nM; in assay [3], over 10000 nM.

Take `Cc1cccc2cc(Cn3nc(-c4cccc(O)c4)c4c(N)ncnc43)n(C3CCC3)c(=O)c12` [Compound 114]: the results for the IC50 in assay [1], in assay [2] and in assay [3] were under 100 nM, over 10000 nM and under 10000 nM, respectively.

Regarding `CCC(Nc1ncnc2[nH]cnc12)c1cc2cccc(C)c2c(=O)n1-c1c(F)cccc1F` (stereo not shown) [Compound 217], the values for the IC50 in assay [1] and in assay [3] were under 10000 nM and over 10000 nM, respectively.

On to `Cc1ccccc1-n1c(Cn2nc(Br)c3c(N)ncnc32)cc2cccc(C)c2c1=O` [Compound 19], for which the results for the IC50 in assay [4], in assay [1] and in assay [2] were under 100 nM, under 100 nM and over 10000 nM, respectively.

In the case of `CC(=O)Nc1nc2ccc(-c3nn(Cc4cc5cccc(C)c5c(=O)n4-c4cccc(F)c4)c4ncnc(N)c34)cc2s1` [Compound 178], the IC50 is under 100 nM in assay [4], under 100 nM in assay [1] and under 10000 nM in assay [3].
